# Assay results from publication PMC1479381, “Uncharged isocoumarin-based inhibitors of urokinase-type plasminogen activator” (BMC Chemical Biology, 2006).
# Counter-ions that a name gives are not always drawn.
# What was measured:
# [1] = biological target: T1, human uPA (Homo sapiens, UniProt P00749); assay: Kinetic inhibition of human urokinase, Spectrozyme UK substrate, initial rates at 405 nm; type: biochemical; settings: for Ki: 0.1 M Tris, pH 8.8, 25°C, Spectrozyme UK 10 μM to 150 μM, read-out: Ki, dissociation constant for inhibition of human uPA; for fold improvement in Ki over compound 4d: compared with unsubstituted 4d
# T1 construct: purchased Sigma/Aldrich, St. Louis, MO
# Procedure: Human urokinase (Sigma/Aldrich, St. Louis, MO) and Spectrozyme UK (American Diagnostica, Stamford, CT) were used for the kinetic studies. Enzyme activity was routinely measured in 1 ml volumes of 0.1 M Tris, pH 8.8, Spectrozyme UK (10 μM to 150 μM) and 0.64 μg (3,770 units/mg protein) human urokinase. Reactions were monitored at 405 nm, 25°C, with a Perkin/Elmer Lambda S2 UV/vis spectrophotometer. Michaelis constants and Ki values were determined from initial rate data, measured at 8 to 10 substrate concentrations, by non-linear regression analysis with SigmaPlot's Enzyme Kinetics Module™ (Chicago, IL, USA).
SMILES,melting point [°C],Ki [1] [nM],fold improvement in Ki over compound 4d [1] [fold],type of inhibition of uPA ([1]; kinetic studies)
"O=c1oc(OCCBr)c(Cl)c2ccc([N+](=O)[O-])cc12 [Compound 4a, 3-(2-Bromoethoxy)-4-chloro-7-nitro-1H-isochromen-1-one]",126 to 128,1800 ± 200,–,–
"O=c1oc(OCCCBr)c(Cl)c2ccc([N+](=O)[O-])cc12 [Compound 4b, 3-(3-Bromopropoxy)-4-chloro-7-nitro-1H-isochromen-1-one]",131 to 134,2400 ± 200,4,–
"O=c1oc(OCCBr)c(Cl)c2ccccc12 [Compound 4c, 3-(2-Bromoethoxy)-4-chloro-1H-isochromen-1-one]",81 to 82,14000 ± 1000,–,–
"O=c1oc(OCCCBr)c(Cl)c2ccccc12 [Compound 4d, 3-(3-Bromopropoxy)-4-chloro-1H-isochromen-1-one]",95 to 97,9000 ± 1000,–,simple competitive inhibition
"O=c1oc(OCCCCBr)c(Cl)c2ccccc12 [Compound 4e, 3-(4-Bromobutoxy)-4-chloro-1H-isochromen-1-one]",75 to 77,18000 ± 2000,–,–
"Br.N=C(N)SCCOc1oc(=O)c2ccccc2c1Cl [Compound 5c, 2-[2-(4-Chloro-1-oxo-1H-isochromen-3-yloxy)ethyl]isothiourea hydrobromide]",168 to 170,33 ± 4,–,–
"Br.N=C(N)SCCCOc1oc(=O)c2ccccc2c1Cl [Compound 5d, 2-[3-(4-Chloro-1-oxo-1H-isochromen-3-yloxy)propyl]isothiourea hydrobromide]",159 to 163,55 ± 3,–,–
"N=C(N)SCCCCOc1oc(=O)c2ccccc2c1Cl [Compound 5e, 2-[4-(4-Chloro-1-oxo-1H-isochromen-3-yloxy)butyl]isothiourea hydrobromide]",–,140 ± 20,–,–
"Nc1ccc2c(Cl)c(OCCBr)oc(=O)c2c1 [Compound 6a, 7-Amino-3-(2-bromoethoxy)-4-chloro-1H-isochromen-1-one]",134 to 136,12000 ± 1000,–,–
"Nc1ccc2c(Cl)c(OCCCBr)oc(=O)c2c1 [Compound 6b, 7-Amino-3-(3-bromopropoxy)-4-chloro-1H-isochromen-1-one]",106 to 107,9500 ± 1000,–,–
"N=C(N)SCCOc1oc(=O)c2cc(N)ccc2c1Cl [Compound 7a, 2-[2-(7-amino-4-chloro-1-oxo-1H-isochromen-3-yloxy)ethyl]isothiourea hydrobromide]",–,20 ± 3,–,–
"Br.N=C(N)SCCCOc1oc(=O)c2cc(N)ccc2c1Cl [Compound 7b, 2-[3-(7-Amino-4-chloro-1-oxo-1H-isochromen-3-yloxy)propyl]isothiourea hydrobromide]",173,38 ± 5,–,–
"Nc1ccc2cc(OCCBr)oc(=O)c2c1 [Compound 11, 7-Amino-3-(2-bromoethoxy)-1H-isochromen-1-one]",> 280,65000 ± 9000,–,–

# Other lines, results leading:
melting point [°C],Ki [1] [nM],fold improvement in Ki over compound 4d [1] [fold],type of inhibition of uPA ([1]; kinetic studies),SMILES
214 to 216,1400 ± 200,–,–,"O=C(Nc1ccc2c(Cl)c(OCCBr)oc(=O)c2c1)c1ccccc1 [Compound 8a, N-[3-(2-Bromoethoxy)-4-chloro-1-oxo-1H-isochromen-7-yl]benzamide]"
193 to 194,34 ± 2,300,–,"O=C(Nc1ccc2c(Cl)c(OCCCBr)oc(=O)c2c1)c1ccccc1 [Compound 8b, N-[3-(3-Bromopropoxy)-4-chloro-1-oxo-1H-isochromen-7-yl]benzamide]"
173 to 175,84 ± 7,–,–,"Br.N=C(N)SCCOc1oc(=O)c2cc(NC(=O)c3ccccc3)ccc2c1Cl [Compound 9a, 2-[2-(7-Benzamido-4-chloro-1-oxo-1H-isochromen-3-yloxy)ethyl]isothiourea hydrobromide]"
203 to 204,10 ± 8,–,–,"Br.N=C(N)SCCCOc1oc(=O)c2cc(NC(=O)c3ccccc3)ccc2c1Cl [Compound 9b, 2-[3-(7-Benzamido-4-chloro-1-oxo-1H-isochromen-3-yloxy]propyl)isothiourea hydrobromide]"
95 to 97,4200 ± 400,–,–,"O=c1oc(OCCBr)cc2ccc([N+](=O)[O-])cc12 [Compound 10a, 3-(2-Bromoethoxy)-7-nitro-1H-isochromen-1-one]"
117 to 118,4300 ± 300,–,–,"O=c1oc(OCCCBr)cc2ccc([N+](=O)[O-])cc12 [Compound 10b, 3-(3-Bromopropoxy)-7-nitro-1H-isochromen-1-one]"
116 to 117,14000 ± 2000,–,–,"O=C(c1c(OCCCBr)oc(=O)c2ccccc12)C(F)(F)F [Compound 10c, 3-(3-Bromopropoxy)-4-trifluoroacetyl-1H-isochromen-1-one]"
